How the values were obtained:
[1] = tested on: volume-induced rhythmic urinary bladder contractions; assay: volume-induced rhythmic urinary bladder contractions in urethane anaesthetised rats (rat model of overactive bladder); format: in vivo, Sprague Dawley rat
Text: In the search for new drugs compounds are of interest which affect the central nervous system circuits involved in micturation as well as the peripheral nerves resulting in a decrease in the frequency of the voiding reflex without any effect on bladder contractility. […] The method utilises spontaneous, volume-induced contractions of the urinary bladder in anaesthetised rats and was developed and first described by Dray (J. Pharmacol. Meth. 13:157-165, 1985) to assess the central activity of substances with opioid properties on bladder function. As this model clearly mimics the interplay between smooth muscle function and neuronal control thereof, this model can be also used to predict drug effects in a different disease, i.e. irritable bowl syndrome (IBS).
Aim of the study: To characterise the effects of the analgesic flupirtine maleate on the bladder function we used the model volume-induced contractions of urinary bladder in urethane anaesthetised rats. […] The compounds at the dose range 0.1-10 mg/kg were intraduodenally administered to anaesthetised rats. The intraduodenal route was chosen to mimic the oral route and to avoid the use of solvents necessary for intravenous administration.
• Species: Sprague Dawley rat • Sex: Female • Body weight: 200-270 g • Breeder: Charles River, Sulzfeld • Food/Tap water: pellets, ssniff M/R15, ad libitum, Spezialdiäten GmbH, Soest/Wesffalen, FRG • Conditions in animal housing: Rats were kept conventionally in groups of 6 in macrolon cages No. 4. • Room temperature: 20-24° C. • Relative humidity: 40-70%, deviations from the maximum range caused during cleaning procedure are possible • Light/Dark rhythm: 12/12 h light/dark cycle, light on at 6:00 a.m.
The food was withdrawn 16 hours before intraduodenal drug administration. Tap water was available ad libitum.
Flupirtine maleate or oxybutynin hydrochloride were suspended in hydroxyethylcellulose (0.5%) in demineralised water. The substances were ground in a mortar with pistil. The suspensions were placed on a magnetic stirrer before and during dosing procedures. The substances were freshly prepared in the morning and applied intraduodenally in a volume of 0.4 ml/100 g body weight. Control rats received hydroxyethylcellulose (0.5%) i.d.
The filling material, consisting of small globules, was ground in a mortar with pistil. Thereafter the grounded material was suspended in hydroxyethylcellulose (0.5%) in demineralised water. The suspensions were placed on a magnetic stirrer before and during dosing procedures for 10 minutes. The suspensions were freshly prepared in the morning and applied intraduodenally in a volume of 0.4 ml/100 g body weight to rats. Control rats received the same amount of hydroxyethylcellulose (0.5%) i.d.
The continuous registration lasted 1 hr. […] The frequency was evaluated for 10 min before (baseline) and within the observation period in intervals of 10 minutes starting 5, 20, 35 and 50 min after drug administration. For intraduodenal dosing, drugs were administered via a duodenal polyethylene tube to animals in aqueous suspension of 0.5% hydroxyethylcellulose.

[2] = tested on: isolated organ strips of rat bladder; assay: isolated organ strips of rat bladder contracted with potassium chloride (40 mM); details: read-out: IC50, concentration needed to counteract the contractile response of potassium chloride by 50%, isolated organ bath
Method: Flupirtine was also tested in an in vitro model of detrusor muscle activity. In this model, isolated organ strips of rat bladder was introduced in an isolated organ bath system. […] In this model, flupirtine did show some activity, but the concentration needed to relax the bladder strip was rather high. […] Direct effects on the bladder wall may be of limited relevance for the pharmacological effect. Indeed, this is in line with the observation that the contraction force of the detrusor in above mentioned in vivo models was not influenced at doses which clearly had pharmacological effects on micturation frequency.

[3] = tested on: bladder instability after partial ligation of the proximal urethra; assay: bladder hyperactivity/detrusor instability induced by chronic partial outflow obstruction; format: in vivo, rats; details: cystometry, 6 weeks after partial ligation
Text: A different model of bladder hyperactivity/detrusor instability induced by chronic partial outflow obstruction is also useful to evaluate the efficacy of a compound. Partial obstruction is achieved using partial ligation of the proximal urethra in rats. […] This can be recorded using cystometry. This model more closely resembles the situation during prostate hyperplasia and other diseases resulting in outflow obstruction. Flupirtine is also active in this model.

[4] = tested on: mean arterial blood pressure; assay: mean arterial blood pressure recorded in the urethane anaesthetised rats of the bladder model; details: summary over the doses tested
Method: The body temperature was maintained at 37° C. by means of an heated small operating table and 2 red light heating lamps. The left carotid artery was prepared and a catheter for continuous blood pressure measurement was inserted and connected to a Statham pressure transducer (Model P23 Db) and connected with a computer-controlled physiological recorder (PMS PR 800, Mumed Systems Ltd London, GB).
For intraduodenal drug administration a polyethylene catheter was inserted into the upper part of the duodenum, about 5 cm downwards from the pylorus and fixed with a purse-string suture. Bilateral ureters were ligated proximally to the bladder to prevent the bladder filling with urine. Urine of the kidneys was drained onto cotton swabs within the abdomen. The urinary bladder was catheterised via the urethra by use of PE 50 polyethylene tubing filled with physiological saline and secured in place by a ligature at the lower part of the urethra. Using a “T”-connector, the bladder catheter was connected to a Statham pressure transducer (Model P23 Db) connected with the physiological recorder (PMS PR 800) to measure intravesicular pressure and to a Infusion pump (TSE, FRG). Continuous recordings of intravesicular pressure and arterial blood pressure were captured onto a 4 channel Linearcorder WR3310 (Western Graphtec, Inc., USA). The experiment was started infusing (0.05 ml/min) the bladder with warmed saline (37-38° C.) to evoke rhythmic bladder contractions by means an infusion pump up to a maximal volume of 1.0 ml. The infusion is stopped after reaching the final volume or with the start of rhythmic bladder contractions.

CCOC(=O)Nc1ccc(NCc2ccc(F)cc2)nc1N [flupirtine, 2-amino-3-carbethoxyamino-6-(4-fluorobenzylamino)-pyridine]
fold higher activity in the bladder model than in the analgesia tests ([1]; compared with analgesic ED50 values): 3-10 fold | intraduodenal dose at which the first effects became visible ([1]; intraduodenal): 3 mg/kg | IC50 [2]: 7.5 µM | activity in the chronic partial outflow obstruction model [3]: active | effect on peripheral blood pressure [4]: not cause any effect

Reference: patent publication US7309713B2, “Use of the non-opiate analgesic drug flupirtine for the treatment of overactive bladder and associated diseases including urge incontinence, urinary flow problems as a result of prostate hyperplasia and irritable bowel syndrome” (priority 2005, dated 2007)
